Reference: PMC5447021, “TNF Lectin-Like Domain Restores Epithelial Sodium Channel Function in Frameshift Mutants Associated with Pseudohypoaldosteronism Type 1B” (Frontiers in Immunology, 2017)

Experiments:
[1] = system: δ-ENaC; conditions: HEK-293, 5 and 10 min; returns after 1 h; cited from earlier work
[2] = system: δD522Xβγ-ENaC; conditions: cited from earlier work
[3] = system: αE272fs (co-expressed with βγ-ENaC); test: Whole-cell patch clamp, αE272fs + WT βγ; assay type: cell-based, human; conditions: read-out: EC50, solnatide, HEK-293, whole-cell, -100 mV, n = 5, p < 0.001 vs WT
Procedure: Point mutations of α-, β-, γ- and δ-hENaC and PHA1B frameshift mutations of α-hENaC were prepared with the QuikChange Lightning Site-Directed Mutagenesis Kit (Agilent Technologies, CA, USA). Mutagenic primers were designed individually with the Primer Design Program provided on the producer’s website or for the frameshift mutations the same base changes as reported in patients (see Table 2) were performed. Primers were ordered from Sigma-Aldrich, Vienna, Austria.
HEK-293 cells were transfected 1 day after cell seeding using X-tremeGENE HP DNA transfection reagent (Roche Diagnostics, Mannheim, Germany) according to the manufacturer’s protocol. A set of WT or mutant αβγ- or δβγ-hENaC, or α-, β-, γ-, or δ-hENaC alone was used, and the ratio of DNA to transfection reagent was 1:3. The expression was highest 48–72 h after transfection.
Electrophysiological experiments were performed as described in detail by Shabbir et al. ([16]). […] Currents were recorded with the patch clamp method in the whole-cell mode. The chamber contained 1 ml of the bath solution of the following composition (in mM): 145 NaCl, 2.7 KCl, 1.8 CaCl2, 2 MgCl2, 5.5 glucose, and 10 HEPES, adjusted to pH 7.4 with 1 M NaOH solution. Micropipettes were pulled from thin-walled borosilicate glass capillaries (Harvard Apparatus, Holliston, MA, USA) with a DMZ Zeitz Puller to obtain electrode resistances ranging from 2 to 5 MΩ. […]

[4] = system: α-ENaC (WT αβγ-ENaC); test: Membrane abundance of WT α-ENaC (cell surface biotinylation, Western blot); assay type: cell-based, human; conditions: HEK-293, 200 nM solnatide, relative to WT control (=1), p < 0.001 vs control
Procedure: Cell surface biotinylation was performed as previously described ([26]). In brief, A549 cells or transiently transfected HEK-293 cells were grown in 10 cm dishes in 37°C, 5% CO2 incubator in DMEM medium supplemented with 5% FBS. […] Medium was aspirated, and then cells were washed twice with 10 ml ice-cold phosphate-buffered saline (PBS), covered with 2.5 mg EZ-Link Sulfo-NHS-SS-Biotin (Thermo Scientific, Rockford, USA), dissolved in 10 ml ice-cold PBS, and incubated at 4°C with gentle agitation for 30 min. Fifty milliliters of quenching solution were added to cells; then cells were scraped in solution and transferred to fresh 50 ml tube. Cell suspension was centrifuged at 500 × g for 3 min. Supernatant was discarded, and 5 ml of Tris-buffered saline (TBS) was added to the cell pellet. The cell pellet was resuspended and centrifuged at 500 × g for 3 min. Supernatant was discarded and cell pellet was resuspended in lysis buffer containing protease inhibitor cocktail (10 µM pepstatin A, 10 µM phenylmethylsulfonyl fluoride, and 10 µM leupeptin) and transferred to fresh 1.5 ml centrifuge tube. Cell pellet was then homogenized on ice by ultrasonication using 1 s bursts and incubated on ice for at least 30 min. Intact cells and nuclei were pelleted by centrifugation at 10,000 × g for 2 min under cooling conditions. […] Exposed films were scanned and quantified using ImageJ (NIH, MD, USA).

C[C@@H]1NC(=O)CNC(=O)[C@H](CCC(=O)O)NC(=O)[C@@H]2CCCN2C(=O)[C@H]([C@@H](C)O)NC(=O)[C@H](CCC(=O)O)NC(=O)[C@H](CCCNC(=N)N)NC(=O)[C@H](CCC(N)=O)NC(=O)CNC(=O)[C@@H](N)CSSC[C@@H](C(=O)O)NC(=O)[C@H](Cc2ccc(O)cc2)NC(=O)[C@H](Cc2c[nH]c3ccccc23)NC(=O)[C@@H]2CCCN2C(=O)[C@H](CCCCN)NC(=O)[C@H](C)NC(=O)[C@H](CCC(=O)O)NC1=O [solnatide, L-cysteine, L-cysteinylglycyl-L-glutaminyl-L-arginyl-L-α-glutamyl-L-threonyl-L-prolyl-L-α-glutamylglycyl-L-alanyl-L-α-glutamyl-L-alanyl-L-lysyl-L-prolyl-L-tryptophyl-L-tyrosyl-, cyclic (1→17)-disulfide]
Membrane abundance, solnatide [1]: significant statistically | Effect of solnatide on amiloride-sensitive current [2]: a residual albeit non-significant increase in the amiloride-sensitive current | Current increase, glycosylation sites removed ([2]; glycosylation sites in extracellular loop removed by mutation): small increase was not seen | EC50 [3]: 75.6 ± 5.4 nM | Membrane abundance, solnatide 5 min ([4]; 5 min, normalized to β-actin): 1.48 ± 0.12 | Membrane abundance, solnatide 10 min ([4]; 10 min): 1.40 ± 0.09
